Experimental data published in publication PMC6214985, “Potassium usnate, a water-soluble usnic acid salt, shows enhanced bioavailability and inhibits invasion and metastasis in colorectal cancer” (Scientific Reports, 2018).
Where “and” joins values, the source holds several entries; their conditions need not be identical. Equal entries are not always repeated.

Assays:
[1] = tested on: Caco2, HCT116, and CT26 cells; assay: Cell invasion assay (Boyden chamber); format: cell-based, human; mouse (CT26); settings: 5 μM, 24 h, vs control
Protocol: Invasion assays were performed in Boyden chambers (Corning, New York, USA)[16]. A 120 μL Cells (2 × 10^6) suspended in medium (DMEM containing 0.2% BSA dissolved in PBS) treated with or without UA or KU were seeded in the upper transwell chamber (Corning, New York, USA) coated with gelatin. Then, fibronectin (10 μg/mL) was added into the lower chamber medium (400 μL) as a chemotactic agent.Then invaded cells adhering to the underneath of upper chamber were fixed and stained with the Diff Quik kit (Sysmex) after 24 h of incubation. The quantitation of the cells were performed under an upright microscope (5 fields/chamber). Each invasion assay was repeated in three independent experiments.

[2] = tested on: CT26 cells expressing firefly luciferase (CT26-Fluc); assay: Orthotopic liver metastasis model (CT26-Fluc, intrasplenic injection); format: in vivo, BALB/c mice; settings: 5 or 10 mg/kg intraperitoneal
Protocol: Five-week-old male BALB/c mice with pathogen-free condition were obtained from Orient Company (Seongnam, Korea). According to the Guiding Principles in the Care and Use of Animals (DHEW publication, NIH 80–23), the handling of animals and all in vivo experiments were performed. The Chonnam National University Medical School Research Institutional Animal Care and Use Committee approved the experimental protocol.
A syngeneic mouse model of colorectal cancer metastasis to the liver was established by infusion of tumor cells into the portal system via intrasplenic injection. […] For optical live imaging in this model, a splenectomy was performed immediately after inoculation of tumor cell, and the firefly luciferase activity was analyzed at several time points with the Xenogen system. […] Weight of tumor was determined by subtracting the average weight of liver of normal mice (n = 4) from the weight of total tumor-bearing liver with addition of the weight of total extrahepatic tumors. […] To evaluate inhibition of tumor growth, mice were analyzed every 7 days with the use of optical imaging. […] Metastatic tumor nodules in the liver with a diameter of >1.0 mm were counted using a microscope, and a metastasis score was assigned based on nodule size as follows: 0 (no gross metastasis), 1 (tumor size >1 mm), and 10 (tumor size >5 mm). […]

[3] = tested on: Twist, Snail, and Slug protein in Caco2 cells; assay: Western blotting of EMT markers in Caco2 cells; format: cell-based, human; settings: 24 h
Protocol: Cells treated with UA or KU for 24 h were washed twice with ice-cold PBS and lysed in lysisbuffer. Antibodies against E-cadherin (61018, BD Biosciences, San Diego, CA, USA), N-cadherin (610921, BD Biosciences), Snail/Slug (ab180714, Abcam, Cambridge, MA, USA), Twist (ab49254, Abcam), PARP (9542, Cell Signaling), Caspase-3 (9662, Cell Signaling), α-Tubulin (2125, Cell Signaling), and ZEB2 (HPA003456, Sigma) were detected with horseradish peroxidase-conjugated secondary antibody (Thermo Fisher Scientific, Waltham, MA, USA) with the use of Immobilon Western Chemiluminescent HRP Substrate Kit (Merck Millipore, Billerica, MA, USA) and luminescence imaging (Image Quant LAS 4000 mini). Multi-Gauge 3.0 was used to measure bands, and relative density was calculated based on the density of the α-tubulin bands in each sample. Expression of values were as arbitrary densitometric units corresponding to signal intensity.

[4] = Hydrolytic stability at pH 4–7; format: physicochemical; settings: pH range of 4–7, room temperature
Protocol: To determine whether the salt form of UA improved its bioavailability, the amount and concentration of usnate in the tumors, liver, and plasma of CT26 syngeneic tumor xenograft-bearing mice were measured by LC-MS/MS analysis. UA or KU was administered orally at a dose of 30 mg/kg at 7 days after CT26 cell inoculation, and the tumor tissues, liver tissues, and plasma of mice were collected after 16 h. […] Assuming that the density of tumor tissue is 0.1 to 1.0 mL/g, the concentration of usnate in tumor tissue is about 1.51 to 15.1 μM. Similarly, the amounts of usnate detected in liver tissues were 0.2788 ± 0.034 nmol/g of tissue for UA and 2.5789 ± 0.402 nmol/g of tissue for KU administered mice (Fig. 2C); the plasma concentrations of usnate were 0.181 ± 0.016 μM for UA and 1.690 ± 0.122 μM for KU administered mice (Fig. 2D).
Supplementary Figure 3. The stability of UA at the pH range of 4–7 in room temperature. (A) UA stability at pH 7.0. (B) UA stability at pH 6.8. (A) UA stability at pH 6.0. (A) UA stability at pH 4.5

[5] = Water solubility by μSol Method; format: physicochemical; settings: 25 °C, pH 7.4, μSol Method with DMSO stock solution
[6] = tested on: CAPN1, CDC42, CFL1, IGF1, WASF1, and WASL in Caco2 cells; assay: Cell motility-related gene expression (RT2 profiler PCR / qRT-PCR) in Caco2 cells; format: cell-based, human; settings: same concentration for UA and KU
Protocol: The RT² Profiler™ PCR Array (330231, SA Biosciences, Qiagen, Courtaboeuf, France) was used to examine the expression patterns of 84 genes involved in human cell motility as previouslydescribed. The manufacturer’s instructions were strictly followed. Gene expression levels were analyzed using the web-based software ‘RT2 Profiler PCR Array Data Analysis version 3.5′. Six cell motility-related genes, including CAPN1, CDC42, CFL1, IGF1, WASF1, and WASL, were selected as candidates.
Quantitative RT-PCR (qRT-PCR) was performed as previously described. Briefly, total RNA ([…]) isolated from UA- or KU-treated Caco2 cells using RNAiso Plus (TaKaRa, Otsu, Shiga 520–2193, Japan) was used to synthesize cDNA using a M-MLV reverse transcriptase kit (Invitrogen, Carlsbad, CA, USA) and SYBR green (Enzynomics, Seoul, Korea). […]

[7] = Usnate distribution by LC-MS/MS after oral administration in CT26 syngeneic mouse tumor xenograft model; format: in vivo; settings: 30 mg/kg oral, 16 h after dosing; CT26 xenograft mice
Protocol: Stock solutions (10 mM) of UA or KU were prepared by dissolution in DMSO. Stock standard solutions were stored at −20 °C. A working standard solution was prepared by dilution of the stock standard solution with a mixture of acetonitrile-water (1:1, v/v). The working standard solution was serially diluted to prepare a concentration series of 0.975, 3.9, 15.6, 62.5, 250, 1000, and 4000 nM in 50% acetonitrile.
Skin tumor xenografts were established using CT26 cells. After 7 days of inoculation and gross tumor formation, UA or KU at 30 mg/kg was administered orally, and tumor, liver, and plasma samples were collected after 16 h (n = 9 each). Mouse tumor and liver samples were homogenized in four volumes of ice-cold deionized water. Plasma and homogenized tissue samples were prepared for analysis in a 96-well cluster tube plate by protein precipitation. A volume of 30 µL of each sample was transferred to eight-well tube strips placed in an 8 × 12 rack (VWR, Emeryville, CA, USA). Four volumes of ice-cold extraction solution (acetonitrile) containing 4-methylumbelliferone (4-MUF, internal standard) were added and vortexed for 10 min. After sonication for 30 min, samples were placed on ice for 1 h. The 96-well cluster tube plate was centrifuged at 1000 × g for 10 min, and the supernatant was analyzed by LC-MS/MS. Standard samples were prepared in the same manner using a blank matrix.
Samples were analyzed with the Prominence UPLC system (Shimadzu, Japan) equipped with an API 3200 QTRAP™ LC-MS/MS system (Applied Biosystems, Foster City, CA, USA). Sample volumes of 10 μL were injected into an Aquity HSS UPLC C18 column (2.5 × 100 mm, 1.8 µm i.d.; Waters, Milford, MA, USA) and maintained at 30 °C. The column was pre-equilibrated in 100% v/v solvent A (deionized water containing 0.1% v/v formic acid)/0% v/v solvent B (acetonitrile containing 0.1% v/v formic acid) at a flow rate of 0.3 mL/min. […] The samples were analyzed via multiple reaction monitoring. […]

[8] = tested on: N-cadherin, Snail, Twist, Slug, and ZEB2 mRNA in Caco2 cells; assay: qRT-PCR of EMT markers in Caco2 cells; format: cell-based, human; settings: 5 μM
Protocol: Quantitative RT-PCR (qRT-PCR) was performed as previously described. Briefly, total RNA ([…]) isolated from UA- or KU-treated Caco2 cells using RNAiso Plus (TaKaRa, Otsu, Shiga 520–2193, Japan) was used to synthesize cDNA using a M-MLV reverse transcriptase kit (Invitrogen, Carlsbad, CA, USA) and SYBR green (Enzynomics, Seoul, Korea). The primers used for real-time PCR were as follows: E-cadherin (forward) 5′-[…]-3′ and (reverse) 5′-[…]-3′; N-cadherin (forward) 5′-[…]-3′ and (reverse) 5′-[…]-3′; Snail (forward) 5′-[…]-3′ and (reverse) 5′-tgggagacacatcggtcga-3′; Twist (forward) 5′-cgggagtccgcagtctta-3′ and (reverse) 5′-[…]-3′; Slug (forward) 5′-[…]-3′ and (reverse) 5′-[…]-3′; ZEB1(forward) 5′-atgacacaggaaaggaagg-3′ and (reverse) 5′-agcagtgtcttgttgtag-3′; ZEB2 (forward) 5′-caagaggcgcaaacaagcc-3′ and (reverse) 5′-[…]-3′; CAPN1 (forward) 5′-[…]-3′ and (reverse) 5′-[…]-3′; CDC42 (forward) 5′-[…]-3′ and (reverse) 5′-[…]-3′; CFL1 (forward) 5′-caaggatgccatcaagaa-3′ and (reverse) 5′-atccttagcctcctcgta-3′; IGF1 (forward) 5′-[…]-3′ and (reverse) 5′-[…]-3′; WASF1 (forward) 5′-[…]-3′ and (reverse) 5′-[…]-3′; WASL (forward) 5′-[…]-3′ and (reverse) 5′-[…]-3′; and GAPDH (forward) 5′-[…]-3′ and (reverse) 5′-[…]-3′. qRT-PCR reactions and analyses were performed using CFX (Bio-Rad, Hercules, CA, USA).

[9] = tested on: colorectal cancer cells (HCT116, DLD1, SW480, HT29, SW620, Caco2, COLO320, CT26); assay: Cell viability assay (MTT); format: cell-based, human; mouse (CT26); settings: 48 h, 12.5–100 μM
Protocol: The human colorectal cancer cell lines HCT116, DLD1, SW480, HT29, SW620, Caco2, and COLO320, and the mouse colorectal cancer cell line CT26, were used in this study. Cells were cultured in DMEM supplemented with 10% fetal bovine serum and 1% Penicillin-Streptomycin solution under a humidified 5% CO2 atmosphere at 37 °C in an incubator.
Colorectal cancer cell growth and survival were detected with the colorimetric quantification of 3-(4,5-dimethylthiazol-2-yl)-2,5-diphenyltetrazolium bromide using the MTT assay. Briefly, cells were seeded and cultured in 96-well plates (2.5 × 10^3 cells/well), and treated with UA or KU for 48 h. After DMSO dissolution, the absorbance at 540 nm was determined using a microplate reader with Gen 5 (2.03.1) software (BioTek Eon, VT, USA).

Usnic acid [UA]
number of invaded cells / invasion [1]: lower in the UA-treated groups than in the control groups
inhibitory effect on metastasis in vivo [2]: no significant inhibitory effect on metastasis
metastasis score ([2]; six or ten times within 2 weeks, vs control): did not detect a statistically significant difference
protein level of Twist, Snail, and Slug [3]: downregulated
hydrolytic stability [4]: consistent
water solubility [5]: 52.2 ± 2.90 μM and 17.7 ± 0.20 μg/mL
expression of cell motility-related genes CAPN1, CDC42, CFL1, IGF1, WASF1, and WASL [6]: only CFL1 and IGF1 gene expression levels were decreased
amount of usnate in liver tissues [7]: 0.2788 ± 0.034 nmol/g of tissue
amount of usnate in tumor tissues [7]: undetectable
plasma concentration of usnate [7]: 181 ± 16 nM
mRNA levels of N-cadherin, Snail, Twist, Slug, and ZEB2 [8]: significantly decreased
cytotoxic activity (cell viability) [9]: showed cytotoxic activity in all the tested colorectal cancer cells
